Measured values as given in US20170166979A1, “PERSONALIZED TREATMENT OF CANCER USING FGFR INHIBITORS” (priority 2014, published 2017).
“Also recorded” adds a separate entry of the source.

Legend:
NIH3T3-FGFR1β-MYC cells = test: Xenograft mouse model, tumor volume; assay type: in vivo, nude mice; details: 15 mg/kg, q.d., tumors coexpressing FGFR1 and MYC; P<0.001
Procedure: (§1) FIG. 4. Nude mice, engrafted with retrovirally transduced NIH3T3 cells, received BGJ398 (15 mg/kg, q.d., lower curve) or 5% glucose (upper curve), respectively, upon formation of palpable tumors. Volumes of tumors formed by NIH3T3-FGFR1f3 cells (top) and NIH3T3-FGFR1β-MYC cells (bottom) were assessed every second day and compared by the t test. Error bars display SD of three independent experiments.
(§2) All animal procedures were approved by the local animal protection committee and the local authorities. Transduced NIH3T3 and tumor cells were resuspended in RPMI or DMEM medium and injected (5×10^6 cells per tumor) subcutaneously into the flanks of 8- to 15-week-old male nude mice [Rj:NMRI-nu (nu/nu), Janvier Europe] under 2.5% isoflurane anesthesia.
(§3) To assess the effect of FGFR1 inhibitors in vivo, NVP-BGJ 398 (Novartis) was dissolved in a vehicle solution (33% PEG300, 5% glucose) for xenograft application. Tumor size was monitored every second day by measurement of perpendicular diameters by an external caliper and calculated by use of the modified ellipsoid formula [V=½ (Length×Width 2)]. Oral therapy was started when tumors reached a volume of 100 mm 3. Mice received daily either
(§4) BGJ398 (15 mg/kg) or vehicle solution. After 14 (NIH3T3 FGFR1(3 +MYC), 16 (NIH3T3 EML4-ALK, KRAS G12V), or 25 (NIH3T3 e.V., FGFR1α/β) days of therapy, respectively, mice were sacrificed by intraperitoneal injection of ketamine/xylazine (300/60 mg/kg).

[1] = tested on: NIH3T3 cells expressing either of the mesenchymal FGFR1 splice variants; test: Xenograft mouse model, tumor volume; assay type: in vivo, nude mice; details: 15 mg/kg, q.d.
Procedure: as §1, §2, §3, §4

[2] = tested on: stage IV squamous cell lung cancer with FGFR1 amplification and MYC score of 3; test: Patient treated with BGJ398 in first-in-humans trial (CT, RECIST 1.1); assay type: in vivo, human; details: 100 mg
Source text: FIG. 11. […] The sample was scored (degrees 0-3) by FGFR1 dual-color FISH (top, normalized copy-number ratio) as well as MYC IHC (bottom, nuclear staining intensity).
FIG. 13. Fused scans of positron emission tomography (PET) and computer tomography (CT) before (top left, baseline) and after the beginning of BGJ389 therapy (top right, 4 weeks). […] Target lesions for evaluation of tumor response are highlighted by red arrows. IHC, immunohistochemistry.
We identified a person with a 70-packper-year smoking history. […] The patient agreed to treatment with BGJ398, a highly specific FGFR1 inhibitor, which was being evaluated in a first-in-humans trial at our center. After cardiac assessment and baseline thoracic computed tomography (CT), treatment with 100 mg BGJ398 was started.

[3] = tested on: FGFR-dependent H1581 cells; test: Induction of apoptosis (Annexin-V/PI, flow cytometry); assay type: cell-based; details: 1 μmol/L, 72-hour
Source text: (§5) FIG. 3. Induction of apoptosis (Annexin-V/PI, flow cytometry) in NIH3T3 cells, (co-) transduced with FGFR1β+/−MYC, by 72-hour FGFR inhibition (PD173074, 1 μmol/L). FGFR-dependent H1581 cells (PD173074, 1 μmol/L) as well as ALK-dependent NIH3T3-EML4-ALK
cells (TAE684, 1 μmol/L) were used as positive controls. Resistant HCC15 and NIH3T3-e.V. cells served as negative controls. *, Significant induction of apoptosis.

[4] = tested on: FGFR-dependent cancer cell lines (H1581, DMS114, and HCC1599); test: FGFR dependency of cancer cell lines (cellular ATP content after 96 hours); assay type: cell-based; details: FGFR-dependent group: H1581, DMS114, HCC1599
Procedure: (§6) FIG. 7. Protein expression of MYC was silenced by stable lentiviral transduction of FGFR dependent H1581 cells as well as HCC15, H2882, and HCC95 controls. Knockdown efficiency was validated by immunoblotting for H1581, H2882, and HCC15 cells (top). FGFR dependency was determined by measuring cellular ATP content after 96 hours (bottom).
(§7) FIG. 9. Segregation of FGFR1 amplification with RNA expression levels of MYC Cancer cell lines were divided into an FGFR-dependent (H1581, DMS114, and HCC1599) GI 50<500 nmol/L, PD173074) versus resistant group (A427, H520, H1703, HCC15, H358, HCC95, H187, SW1271, H526, and DMS153 cells). Expression levels were compared by the Student t test. wt, wild-type.

[5] = tested on: resistant group (A427, H520, H1703, HCC15, H358, HCC95, H187, SW1271, H526, and DMS153 cells); test: as above; assay type: cell-based
Procedure: as §6, §7

[6] = tested on: FGFR-dependent cell lines; test: Mitochondrial apoptosis mediators upon FGFR inhibition; assay type: cell-based; details: 1 μmol/L, after 72 hours
[7] = tested on: FGFR-dependent cell lines H1581 and DMS114; test: Immunoblotting of MYC and cyclin D1 expression upon FGFR inhibition; assay type: cell-based; details: 1 μmol/L, within 24 hours
Procedure: (§8) FIG. 6. FGFR1-amplified H1581, DMS114, and HCC95 cells as well as HCC15 (NRAS mut) controls were treated with PD173074 (1 μmol/L, 24 hours). Expression levels of MYC, cyclin D1, and actin as well as ERK phosphorylation were monitored by immunoblotting. Con.: positive control NIH3T3-FGFR1β cells.

[8] = tested on: FGFR1-amplified HCC95 and H520 cells and NRAS-mutant HCC15 cells; test: as above; assay type: cell-based; details: 1 μmol/L, 24 hours
Procedure: as §8

[9] = tested on: NIH3T3 cells expressing FGFR1 alone; test: Induction of apoptosis (Annexin-V/PI, flow cytometry); assay type: cell-based; details: 1 μmol/L, 72-hour FGFR inhibition
Source text: as §5
(§9) cells (TAE684, 1 μmol/L) were used as positive controls.

[10] = tested on: FGFR1-MYC cotransduced NIH3T3 cells; test: as above; assay type: cell-based; details: 1 μmol/L, 72-hour FGFR inhibition
Source text: as §5, §9

Structure (SMILES)	Tumor regression (NIH3T3-FGFR1β-MYC cells)	Tumor growth ([1]; oral, nude mice)	Tumor shrinkage ([1]; tumors expressing FGFR1 alone)	Duration of therapy until progressive disease (kidney, RECIST1.1) [2] [months]	Symptoms [2]	Response according to RECIST 1.1 criteria ([2]; CT scans after 4 and 8 weeks)	Tumor response on CT ([2]; CT scans after 4 and 8 weeks)	Induction of apoptosis [3]	GI50 [4] [nM]	FGFR dependency group [5]	Cytochrome C release [6]	Loss of the mitochondrial membrane potential [6]	Levels of MYC [7]	Levels of cyclin D1 [7]	Expression levels (MYC, cyclin D1) [8]	Induction of apoptosis [9]	Induction of apoptosis [10]
CCN1CCN(c2ccc(Nc3cc(N(C)C(=O)Nc4c(Cl)c(OC)cc(OC)c4Cl)ncn3)cc2)CC1 [BGJ398]	led to regressions	repressed tumor growth	did not induce tumor shrinkage	10	improvement of symptoms	partial response (PR)	tumor regression; also recorded: regression without cavitation of the tumor										
CCN(CC)CCCCNc1ncc2cc(-c3cc(OC)cc(OC)c3)c(NC(=O)NC(C)(C)C)nc2n1 [PD173074]								induced apoptosis	< 500	resistant	occurred robustly	occurred robustly	decreased	decreased	remained relatively stable	but not in cells expressing FGFR1 alone	induced apoptosis
